Measurements taken from article PMC10146426, “Naturally Occurring Chalcones with Aggregation-Induced Emission Enhancement Characteristics” (Molecules, 2023).
Where two headings read alike, the source gives them in different places.

What was measured:
[1] = DPPH radical-scavenging activity assay; conditions: for DPPH Radical Scavenging (%) after 30 min / DPPH Radical Scavenging (%) after 60 min: mean ± SD
Protocol: 2,2-Diphenylpicrylhydrazyl (DPPH) was purchased from Sigma-Aldrich (Steinheim, Germany). DPPH radical-scavenging activity was determined according to the method described by Brand-Williams et al. using (+)-catechin (Sigma-Aldrich, Steinheim, Germany) as the positive control. The chalcone samples were previously dissolved in DMSO and MeOH at the molar concentration of 2 × 10^–3 M. The positive control sample was dissolved in DMSO at the same molar concentration. The DPPH stock solution was diluted 10× with methanol to obtain the concentration of 1 × 10^–4 M. The measurements: 70 μL of the sample was added to 4 mL of the DPPH solution, and the samples were left for 30 or 60 min at room temperature in the dark. The absorbance was recorded at 517 nm by s Varian Cary 50 spectrophotometer. The control was prepared as above without any sample.
DPPH free-radical scavenging activity was calculated using the following Formula (2):(2) Scavenging activity [%]=[Absorbance of control−Absorbance of test sample]/Absorbance control×100 where the absorbance of control is the absorbance of DPPH radicals in the absence of compounds, and the absorbance of the test sample is the absorbance in the presence of the studied compound.

[2] = target: T1, butyrylcholinesterase (BuChE, E.C. 3.1.1.8, from equine serum) (Equus caballus, UniProt P81908); experiment: BuChE inhibition (Ellman method); type: biochemical
T1 construct: butyrylcholinesterase (BuChE, E.C. 3.1.1.8, from equine serum); purchased Sigma-Aldrich (Steinheim, Germany); host or cells: equine serum (natural source)
T1 sequence (P81908 whole entry): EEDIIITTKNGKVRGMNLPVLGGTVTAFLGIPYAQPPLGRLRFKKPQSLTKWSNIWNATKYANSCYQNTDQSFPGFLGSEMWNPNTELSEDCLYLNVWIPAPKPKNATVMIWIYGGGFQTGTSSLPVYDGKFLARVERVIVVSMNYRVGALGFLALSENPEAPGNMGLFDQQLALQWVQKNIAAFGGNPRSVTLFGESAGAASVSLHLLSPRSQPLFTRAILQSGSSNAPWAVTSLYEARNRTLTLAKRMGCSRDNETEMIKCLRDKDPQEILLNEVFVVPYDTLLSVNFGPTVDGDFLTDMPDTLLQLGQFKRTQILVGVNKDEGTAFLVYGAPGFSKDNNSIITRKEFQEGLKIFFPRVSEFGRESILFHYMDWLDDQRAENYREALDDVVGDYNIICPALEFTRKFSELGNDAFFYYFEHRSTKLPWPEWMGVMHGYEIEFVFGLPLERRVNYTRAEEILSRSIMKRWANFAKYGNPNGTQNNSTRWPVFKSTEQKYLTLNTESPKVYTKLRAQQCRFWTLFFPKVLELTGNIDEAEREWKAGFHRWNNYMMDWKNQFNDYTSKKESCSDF
Protocol: (§1) The inhibitory activities against AChE and BuChE of the prepared compounds were performed by means of the method previously developed by Ellman et al. using neostigmine as the reference compound [68]. This is based on the reaction of released thiocholine to give a coloured product with a chromogenic reagent. Seven different concentrations of the compounds in the range 10^−9–10^−3 M were measured at 412 nm. All the assays were performed in the 0.1 M NaH2PO4/Na2HPO4 buffer (pH = 8) using the Varian Cary 50 spectrophotometer. 5,5′-Dithio-bis(2-nitrobenzoic acid) (DTNB) was used to measure the anti-AChE activity. […] Briefly, 140 µL of 0.1 mM sodium phosphate buffer (pH 8.0), 20 µL of DTNB, 20 µL of the assay solution and 20 µL of the AChE/BuChE solution were added and incubated for 15 min at 25 °C. The reaction was then initiated by adding 10 µL of acetylthiocholine iodide or butylthiocholine iodide. Yellow anion (2-nitro-5-thiobenzoic acid) formation was recorded at 412 nm for 10 min. It was determined by preparing an identical solution of the enzyme in the absence of tested compounds (as the control). Control and inhibitor readings were corrected with a blank read. All operations were repeated three times. The inhibition properties are reported as the IC50 values, which were determined graphically from the inhibition curves of log inhibitor concentration vs. the percentage of inhibition. The IC50 values represent the concentration of the inhibitor required for 50% inhibition of the enzyme.

[3] = target: T2, Acetylcholinesterase (AChE, E.C. 3.1.1.7, from human erythrocytes) (Homo sapiens, UniProt P22303); experiment: AChE inhibition (Ellman method); type: biochemical
T2 construct: Acetylcholinesterase (AChE, E.C. 3.1.1.7, from human erythrocytes); purchased Sigma-Aldrich (Steinheim, Germany); host or cells: human erythrocytes (natural source)
T2 sequence (P22303 32-617 isoform P22303-2 limits assumed): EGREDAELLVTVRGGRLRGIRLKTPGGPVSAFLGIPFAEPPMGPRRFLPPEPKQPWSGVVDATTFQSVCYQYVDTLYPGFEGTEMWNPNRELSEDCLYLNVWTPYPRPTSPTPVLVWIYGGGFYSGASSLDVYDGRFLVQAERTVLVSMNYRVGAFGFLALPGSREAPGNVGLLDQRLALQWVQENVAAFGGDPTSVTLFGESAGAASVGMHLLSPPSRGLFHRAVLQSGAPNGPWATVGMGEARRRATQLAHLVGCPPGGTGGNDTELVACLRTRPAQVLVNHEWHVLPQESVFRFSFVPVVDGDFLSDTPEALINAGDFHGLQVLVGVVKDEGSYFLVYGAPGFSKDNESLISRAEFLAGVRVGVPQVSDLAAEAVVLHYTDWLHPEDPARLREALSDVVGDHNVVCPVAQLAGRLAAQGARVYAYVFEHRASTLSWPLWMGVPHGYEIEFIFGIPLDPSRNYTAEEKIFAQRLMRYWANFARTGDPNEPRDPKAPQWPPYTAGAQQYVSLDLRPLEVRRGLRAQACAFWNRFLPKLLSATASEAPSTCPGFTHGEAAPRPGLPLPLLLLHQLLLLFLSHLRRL
Protocol: as §1

[4] = samples dissolved in DMSO (stock 2 × 10^−3 M), three experiments
[5] = samples dissolved in MeOH (stock 2 × 10^−3 M)
[6] = pH 8 phosphate buffer, 25 °C, n = 9, read-out: BuChE IC50 Mean ± SD
[7] = pH 8 phosphate buffer, 25 °C, n = 9, read-out: AChE IC50 Mean ± SD

Q: With `Oc1cc(O)c2c(c1)O[C@H](c1ccc(O)c(O)c1)[C@@H](O)C2` [(+)-catechin, reference compound] as the molecule, how does the “DPPH Radical Scavenging (%) after 30 min” value [1, 4] read?
A: The value was 94.14 ± 0.44%.

Q: For `COc1cc(O)cc(O)c1C(=O)/C=C/c1ccccc1` [CA, cardamonin], which IC50 [2] is on record?
A: The IC50 was 75.29 ± 0.41 µM.

Q: What about the “DPPH Radical Scavenging (%) after 30 min” value [1, 4] of the same molecule?
A: The value was 2.09 ± 0.05%.

Q: What about the “DPPH Radical Scavenging (%) after 30 min” value [1, 5] of the same molecule?
A: Its value is 0.79 ± 0.07%.

Q: What about the “DPPH Radical Scavenging (%) after 60 min” value [1, 5] of the same molecule?
A: The value was 1.33 ± 0.14%.

Q: And the IC50 [3]?
A: The IC50 was 67.87 ± 0.01 µM.

Q: What does the source list for `COc1ccc(/C=C/C(=O)c2c(O)cc(OC)cc2OC)cc1` [HCH, 2′-hydroxy-4,4′,6′-trimethoxychalcone]?
A: IC50 [2, 6]: 76.5 ± 3.03 µM; DPPH Radical Scavenging (%) after 30 min [1, 4]: 2.09 ± 0.03%; DPPH Radical Scavenging (%) after 30 min [1, 5]: 0.30 ± 0.06%; DPPH Radical Scavenging (%) after 60 min [1, 5]: 0.35 ± 0.05%; IC50 [3, 7]: > 100 µM; inhibitory properties towards AChE ([3]; result in words): did not show any inhibitory properties

Q: For `CC(C)=CCc1c(O)ccc(C(=O)/C=C/c2ccc(O)cc2)c1O` [IBC, isobavachalcone], which IC50 [2, 6] is on record?
A: Its IC50 is 43.05 ± 0.16 µM.

Q: And the “DPPH Radical Scavenging (%) after 30 min” value [1, 4]?
A: Its value is 2.36 ± 0.07%.

Q: What about the “DPPH Radical Scavenging (%) after 30 min” value [1, 5] of the same molecule?
A: The value was 0.61 ± 0.01%.

Q: What about the “DPPH Radical Scavenging (%) after 60 min” value [1, 5] of the same molecule?
A: Its value is 1.03 ± 0.06%.

Q: And the IC50 [3, 7]?
A: Its IC50 is 35.48 ± 0.01 µM.

Q: For `C=CC(C)(C)c1cc(/C=C/C(=O)c2ccc(O)cc2)c(OC)cc1O` [LIC, licochalcone A], which IC50 [2] is on record?
A: The IC50 was 42.28 ± 0.06 µM.

Q: What about the “DPPH Radical Scavenging (%) after 30 min” value [1, 4] of the same molecule?
A: The value was 29.24 ± 0.70%.

Q: What about the “DPPH Radical Scavenging (%) after 30 min” value ([1]; samples dissolved in DMSO (stock 2 × 10^−3 M), three experiments, listed as licochalcone A) of the same molecule?
A: The value was ~ 29%.

Q: What about the “DPPH Radical Scavenging (%) after 30 min” value [1, 5] of the same molecule?
A: Its value is 26.50 ± 0.92%.

Q: And the “DPPH Radical Scavenging (%) after 60 min” value [1, 5]?
A: The value was 29.60 ± 0.98%.

Q: And the “DPPH Radical Scavenging (%) after 60 min” value ([1]; samples dissolved in MeOH (stock 2 × 10^−3 M), listed as licochalcone A)?
A: The value was ~ 29%.

Q: What about the “DPPH radical scavenging (%)” value ([1]; solvent and time not stated) of the same molecule?
A: The value was 29%.

Q: And the IC50 [3]?
A: Its IC50 is 23.41 ± 0.02 µM.

Q: With `CN(C)C(=O)Oc1cccc([N+](C)(C)C)c1` [Neostygmine, neostigmine bromide, reference compound] as the molecule, how does the IC50 [2] read?
A: The IC50 was 0.03 ± 0.01 µM.

Q: With `COc1cc(O)c(CC=C(C)C)c(O)c1C(=O)/C=C/c1ccc(O)cc1` [XN, xanthohumol] as the molecule, how does the IC50 [2, 6] read?
A: Its IC50 is 65.79 ± 0.34 µM.

Q: And the “DPPH Radical Scavenging (%) after 30 min” value [1, 4]?
A: Its value is 7.99 ± 0.05%.

Q: What about the “DPPH Radical Scavenging (%) after 30 min” value [1, 5] of the same molecule?
A: Its value is 4.34 ± 0.05%.

Q: What about the “DPPH Radical Scavenging (%) after 60 min” value [1, 5] of the same molecule?
A: The value was 6.72 ± 0.30%.

Q: And the IC50 [3, 7]?
A: Its IC50 is 40.81 ± 0.04 µM.
